Earlier results as cited in patent US8895061B2, “Compositions comprising carisoprodol and methods of use thereof” (Meda Pharmaceuticals Inc., priority 2007, dated 2014).

Legend:
[1] = for influence of polymorphic debrisoquine hydroxylation on elimination: poor metabolizers of debrisoquine, single oral doses
[2] = in vivo

| SMILES | influence of polymorphic debrisoquine hydroxylation on elimination [1] | mean serum clearance of carisoprodol ([1]; poor metabolizers of mephenyloin compared with extensive metabolizers, single oral dose 700 mg carisoprodol) | onset of action [2] | mean serum clearance of meprobamate ([1]; poor metabolizers of mephenyloin compared with extensive metabolizers, single oral dose 400 mg meprobamate) |
| --- | --- | --- | --- | --- |
| CCCC(C)(COC(N)=O)COC(=O)NC(C)C (centres unmarked) [carisoprodol, N-isopropyl-2-methyl-2-propyl-1,3-propanediol dicarbamate] | did not influence the elimination | four times lower | rapid | – |
| CCCC(C)(COC(N)=O)COC(N)=O [meprobamate] | did not influence the elimination | – | – | did not differ between the two groups |
